# Results reported in US8563723B2, “Arylsulfonyl pyrazoline carboxamidine derivatives as 5-HT6 antagonists” (Abbott Healthcare Products, B.V., priority 2008, dated 2013).
# Like-named read-outs stand apart in the source and are kept apart here.
# What was measured:
# [1] = target: T1, 5-HT6 receptor (Homo sapiens, UniProt P50406); test: In vitro functional activity ((ant)agonism) on human 5-HT6 receptors, CHO-human-5HT6-Aequorin assay; assay type: cell-based; parameters: host or cells: CHO AequoScreen recombinant cell line (expresses mitochondrial targeted apo-Aequorin); conditions: antagonism of 10^-8 M α-methylserotonin induced luminescence; for Kb: read-out: 5-HT6 pA2 (converted)
# Description: Human-5-HT6-Aequorin cells express mitochondrial targeted apo-Aequorin. Cells have to be loaded with coelanterazine, in order to reconstitute active Aequorin. […] This luminescent response is dependent on the agonist concentration. Luminescence is measured using the MicroBeta Jet (Perkin Elmer). Agonistic effects of compounds are expressed as pEC50. […] Compounds were tested at a 5 log concentration range, and 3 independent experiments were performed in duplicate.
# [2] = target: T1, 5-HT6 receptor; test: In vitro affinity for human 5-HT6 receptors ([3H]-LSD binding, CHO cell membranes); parameters: host or cells: CHO/Gα16/mtAEQ/h5HT6-A1 cells; conditions: [3H]-LSD, membranes of CHO cells with human 5-HT6, read-out: 5-HT6 pKi (converted)
# Description: In Vitro Affinity for Human 5-HT6 Receptors
# Affinity for human 5-HT6 receptors was measured in a membrane preparation of CHO-cells transfected with human 5-HT6 receptors by binding studies using [^3H]-N-Methyl-Lysergic acid diethylamide ([^3H]-LSD) as ligand. […] CHO/Gα16/mtAEQ/h5HT6-A1 cells were grown in T-flasks in CHO-S-SFM II medium (Gibco BRL), supplemented with 1% dialysed FCS, 2 mM L-glutamine, Geneticin 500 μg/ml and Zeocin 200 μg/ml. […] After thawing cells were centrifuged during 3 minutes at 1500 g at 4° C. […] The assay was established so as to achieve steady state conditions and to optimize specific binding. For the 5-HT6 receptor, membranes from 5.10^5 cells were incubated with 5.0 nM [^3H]-LSD at 37° C. for 30 minutes. Nonspecific binding was determined using 10^−5 M serotonin. Assays were terminated by vacuum filtration through glass fibre filters (GF/B) which had been pretreated with 0.5% polyethyleneimine. Total and bound radioactivity was determined by liquid scintillation counting. […] Compounds were tested at a 4 log concentration range; all determinations were performed as triplicates. IC50 values were determined by non-linear regression analysis using Hill equation curve fitting. The inhibition constants (Ki-values) were calculated from the Cheng-Preushoff equation: Ki=IC50:(1+L/Kd) wherein L represents the concentration [^3H]-LSD in the assay, and Kd its affinity for the receptor. Results are expressed as pKi-values, means±SD of at least three separate experiments.
# [3] = in vitro; conditions: rat, hepatocytes
# [4] = in vitro; conditions: human, hepatocytes
# [5] = target: T1, 5-HT6 receptor; conditions: 5-HT6 receptor (Sleight, 1998); cited from earlier work
# [6] = Sleight, 1998; cited from earlier work
# [7] = Rogers, 1999; cited from earlier work
# T1 sequence (P50406 whole entry): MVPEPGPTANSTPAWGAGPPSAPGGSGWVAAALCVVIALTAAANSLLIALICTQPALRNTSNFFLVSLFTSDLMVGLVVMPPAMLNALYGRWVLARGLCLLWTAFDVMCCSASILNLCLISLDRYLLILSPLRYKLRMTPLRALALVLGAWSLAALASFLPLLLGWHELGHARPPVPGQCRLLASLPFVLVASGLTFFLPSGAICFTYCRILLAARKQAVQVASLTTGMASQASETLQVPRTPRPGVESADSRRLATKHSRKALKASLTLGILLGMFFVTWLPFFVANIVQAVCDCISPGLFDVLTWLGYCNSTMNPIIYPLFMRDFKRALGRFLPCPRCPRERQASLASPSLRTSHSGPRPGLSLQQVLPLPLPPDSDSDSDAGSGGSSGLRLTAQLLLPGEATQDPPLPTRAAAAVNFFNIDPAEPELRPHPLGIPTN
SMILES,Kb ([1]; main compound table) [nM],Ki ([2]; comparison table Example 6) [nM],Ki ([2]; main compound table) [nM],half-life at 1 μg/ml [3] [min],half-life at 1 μg/ml [4] [min],5-HT6 pA2 ([1]; main compound table),Kb ([1]; comparison table Example 6) [nM],Ki [5] [nM],pharmacokinetics [6],performance in the Morris water maze [7]
"CCN/C(=N\S(=O)(=O)c1ccc(N)c(Cl)c1)N1CC(C)(C)C=N1 [Compound 13, 4-Amino-3-chloro-N-[(4,4-dimethyl-4,5-dihydro-pyrazol-1-yl)-ethylamino-methylene]-benzenesulfonamide]",3.16,6.31,6.31,22,700,–,–,–,–,–
CCN/C(=N\S(=O)(=O)c1ccc(N)c(Cl)c1)N1CC2(C=N1)CCCC2 [Compound 14],–,1.58,1.58,17,51,9.0,–,–,–,–
"CCN/C(=N\S(=O)(=O)c1ccc(O)cc1)N1CC(CC)C=N1 (centres unmarked) [Compound 19, N-[Ethylamino-(4-ethyl-4,5-dihydro-pyrazol-1-yl)-methylene]-4-hydroxybenzenesulfonamide]",2.51,3.16,3.16,19,354,–,–,–,–,–
CCN/C(=N\S(=O)(=O)c1ccc(O)cc1)N1CC(C)(C)C=N1 [Compound 22],5.01,12.6,12.6,33,1440,–,–,–,–,–
"CCN/C(=N\S(=O)(=O)c1ccc(OC)cc1)N1CC(CC)C=N1 (centres unmarked) [Compound 81 from WO 2008/034863, reference compound]",–,63.1,–,16,68,–,100,–,–,–
CNc1cc(NS(=O)(=O)c2ccc(N)cc2)nc(NC)n1 [Ro 04-6790],–,–,–,–,–,–,–,50,poor,–
CNc1cc(NS(=O)(=O)c2ccc(N)cc2)cc(NC)n1 [Ro 63-0563],–,–,–,–,–,–,–,12,poor,–
COc1ccc(NS(=O)(=O)c2sc3ccc(Cl)cc3c2C)cc1N1CCNCC1 [SB-271046],–,–,–,–,–,–,–,–,–,improved performance
